# Measured values from patent US8637664B2, “Alkyl 4- [4- (5-oxo-2,3,5, 11a-tetrahydo-5H-pyrrolo [2, 1-c] [1,4] benzodiazepine-8-yloxy)-butyrylamino]-1H-pyrrole-2-carboxylate derivatives and related compounds for the treatment of a proliferative disease” (Spirogen SARL, priority 2005, dated 2014).
# How the values were obtained:
# [1] = test system: calf thymus DNA (CT-DNA); experiment: DNA thermal denaturation (melting) studies; type: binding; details: CT-DNA 100 μM DNAp, compound 20 μM, 37 °C; for Induced ΔTm after incubation 0 hours: pH 7.00, 0 hours; for Induced ΔTm after incubation 4 hours: pH 7.00, 4 hours; for Induced ΔTm after incubation 18 hours: pH 7.00, 18 hours
# Procedure, shortened: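 CT-DNA at 100 μM (50 μM bp) with test compound at 20 μM in pH 7.00 10 mM sodium phosphate/1 mM EDTA, preincubated at 37.0 °C for 0–18 h (up to 72 h for some compounds). Absorbance at 260 nm, heated 1 °C/min over 45–98 °C; Tm from melting-profile midpoint, ΔTm versus free DNA, MeOH-corrected, mean±SD of ≥3.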
# [2] = test system: K562 human chronic myeloid leukaemia cells; experiment: In vitro cytotoxicity, MTT assay; type: cell-based; details: K562, 1 hour drug exposure, MTT after 4 days
# Method: K562 human chronic myeloid leukaemia cells were maintained in RPM1 1640 medium supplemented with 10% fetal calf serum and 2 mM glutamine at 37° C. in a humidified atmosphere containing 5% CO2 and were incubated with a specified dose of drug for 1 hour at 37° C. in the dark. The incubation was terminated by centrifugation (5 min, 300 g) and the cells were washed once with drug-free medium. Following the appropriate drug treatment, the cells were transferred to 96-well microtiter plates (10^4 cells per well, 8 wells per sample). Plates were then kept in the dark at 37° C. in a humidified atmosphere containing 5% CO2. The assay is based on the ability of viable cells to reduce a yellow soluble tetrazolium salt, 3-(4,5-dimethylthiazol-2-yl)-2,5-diphenyl-2H-tetrazolium bromide (MTT, Aldrich-Sigma), to an insoluble purple formazan precipitate. Following incubation of the plates for 4 days (to allow control cells to increase in number by approximately 10 fold), 20 μL of MTT solution (5 mg/mL in phosphate-buffered saline) was added to each well and the plates further incubated for 5 hours. The plates were then centrifuged for 5 minutes at 300 g and the bulk of the medium pipetted from the cell pellet leaving 10-20 μL per well. DMSO (200 μL) was added to each well and the samples agitated to ensure complete mixing. The optical density was then read at a wavelength of 550 nm on a Titertek Multiscan ELISA plate reader, and a dose-response curve was constructed.
SMILES,Induced ΔTm after incubation 0 hours [1],Induced ΔTm after incubation 4 hours [1],Induced ΔTm after incubation 18 hours [1],IC50 [2]
"COC(=O)c1cc(NC(=O)c2cc(NC(=O)CCCOc3cc4c(cc3OC)C(=O)N3CCC[C@H]3C=N4)cn2C)cn1C [Compound 23, (11aS) Methyl 4-({4-[4-(7-Methoxy-6-oxo-2,3,5,11a-tetrahydro-5H-pyrrolo[2,1-c][1,4]benzodiazepine-8-yloxy)-butyrylamino]-1-methyl-1H-pyrrole-2-carbonyl}-amino)-1-methyl-1H-pyrrole-2-carboxylate]",13.9 °C,15.0 °C,15.6 °C,3.6 nM
"COC(=O)c1cc(NC(=O)c2cc(NC(=O)c3cc(NC(=O)CCOc4cc5c(cc4OC)C(=O)N4CCC[C@H]4C=N5)cn3C)cn2C)cn1C [Compound C11, (11aS) Methyl 4-{[4-({4-[4-(7-Methoxy-5-oxo-2,3,5,11a-tetrahydro-5H-pyrrolo[2,1-c][1,4]benzodiazepine-8-yloxy)-propionylamino]-1-methyl-1H-pyrrole-2-carbonyl]-amino)-1-methyl-1H-pyrrole-2-carbonyl]-amino}-1-methyl-1H-pyrrole-2-carboxylate]",7.9 °C,8.4 °C,9.6 °C,346 nM
